Source: US8637252B2, “Methods and compositions for determining altered susceptibility of HIV-1 to anti-HIV drugs” (Monogram Biosciences, Inc., priority 2011, dated 2014)

Test system: HIV-1 (PRRT-RHIN segment of patient sample 62)
Test: phenotypic drug resistance test, PRRT-RHIN amplicon of sample 62
Type: cell-based
Text: Patient-derived segment(s) corresponding to the entire pol gene, encoding HIV protease, reverse transcriptase (including RNAse H), and integrase (hereinafter “POL”), the portion of pol encoding amino acids 1-305 of reverse transcriptase (hereinafter “PR-RT”), the portion of pol encoding amino acids 319-440 of reverse transcriptase (including RNAse H), and integrase (hereinafter “RHIN”), were amplified by the reverse transcription-polymerase chain reaction method (RT-PCR) using viral RNA isolated from viral particles present in the plasma or serum of HIV-infected individuals as described below. The portion of pol encoding protease, amino acids 1-531 of reverse transcriptase (including RNase H) (hereinafter “PRRT-RH”), or the portion of pol encoding protease, reverse transcriptase (including RNAse H) and integrase (hereinafter “PRRT-RHIN”), were assembled from amplicons described above by standard recombinant DNA techniques involving a KpnI restriction site at amino acid 400 or a Pin A1 site at amino acid 315.
Drug resistance tests performed with test vectors were carried out using packaging host and target host cells consisting of the human embryonic kidney cell line 293.
Resistance tests were carried out with the RTV libraries by using viral particles comprising the RTV libraries to infect a host cell in which the expression of the indicator gene is measured. The amount of indicator gene (luciferase) activity detected in infected cells is used as a direct measure of “infectivity,” i.e., the ability of the virus to complete a single round of replication. Thus, drug resistance or sensitivity can be determined by plotting the amount of luciferase activity produced by patient derived viruses in the presence of varying concentrations of the antiviral drug. By identifying the concentration of drug at which luciferase activity is half-maximum, the IC50 of the virus from which patient-derived segment(s) were obtained for the antiretroviral agent can be determined. […]

Compound: O=C1Nc2ccc(Cl)cc2[C@@](C#CC2CC2)(C(F)(F)F)O1 [EFV, efavirenz]
- Fold Change in IC50, PRRT-RHIN amplicon: 202.00 fold

Compound: Cc1ccnc2c1NC(=O)c1cccnc1N2C1CC1 [NVP, nevirapine]
- Fold Change in IC50, PRRT-RHIN amplicon: 400.00 fold

Compound: CC(C)Nc1cccnc1N1CCN(C(=O)c2cc3cc(NS(C)(=O)=O)ccc3[nH]2)CC1 [DLV, delavirdine]
- Fold Change in IC50, PRRT-RHIN amplicon: 140.00 fold
